Data: patent US8653263B2 (Janssen Pharmaceutica, priority 2009, dated 2014)
pKi: −log10 of the molar value.

Biological target: human orexin-2 receptor (Homo sapiens (Human), UniProt O43614)
Assay: Human orexin 2 receptor radioligand binding ([3H]-EMPA competition)
Settings: HEK293 cells stably expressing human orexin-2 receptor; [3H]-EMPA 5 nM final; apparent Ki=IC50/(1+C/Kd), Kd=2 nM; read-out: OR 2 Ki

Chain of human orexin-2 receptor (O43614 whole entry): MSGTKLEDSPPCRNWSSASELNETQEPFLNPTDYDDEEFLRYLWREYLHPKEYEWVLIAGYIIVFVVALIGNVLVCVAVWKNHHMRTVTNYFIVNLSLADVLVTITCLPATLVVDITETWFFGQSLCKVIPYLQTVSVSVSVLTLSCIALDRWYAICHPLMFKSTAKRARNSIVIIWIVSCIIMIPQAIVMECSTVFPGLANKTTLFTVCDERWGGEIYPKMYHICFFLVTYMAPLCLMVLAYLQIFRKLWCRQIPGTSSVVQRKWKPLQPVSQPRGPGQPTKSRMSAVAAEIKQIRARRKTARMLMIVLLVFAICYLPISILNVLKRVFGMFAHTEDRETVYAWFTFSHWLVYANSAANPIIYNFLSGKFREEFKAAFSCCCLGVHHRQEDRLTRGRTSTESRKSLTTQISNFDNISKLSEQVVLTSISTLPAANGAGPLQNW

SMILES	pKi
O=C(c1ccccc1-c1nnc[nH]1)N1CC2CN(c3nc4ccccc4o3)CC2C1 (stereo not drawn) [Example 86, 2-[5-{[2-(4H-1,2,4-Triazol-3-yl)phenyl]carbonyl}hexahydropyrrolo[3,4-c]pyrrol-2(1H)-yl]-1,3-benzoxazole]	6.59
O=C(c1ccccc1-c1nnc[nH]1)N1CC2CN(c3nc4ccccc4nc3C(F)(F)F)CC2C1 (stereo not drawn) [Example 94, 2-[5-{[2-(4H-1,2,4-Triazol-3-yl)phenyl]carbonyl}hexahydropyrrolo[3,4-c]pyrrol-2(1H)-yl]-3-(trifluoromethyl)quinoxaline]	6.26
Cc1cc(N2CC3CN(C(=O)c4c(F)cccc4-n4nccn4)CC3C2)nc(C(F)(F)F)n1 (stereo not drawn) [Example 98, 2-{[2-Fluoro-6-(2H-1,2,3-triazol-2-yl)phenyl]carbonyl}-5-[6-methyl-2-(trifluoromethyl)pyrimidin-4-yl]octahydropyrrolo[3,4-c]pyrrole]	7.55
Cc1cc(N2CC3CN(C(=O)c4ccc(F)cc4-n4nccn4)CC3C2)nc(C(F)(F)F)n1 (stereo not drawn) [Example 99, 2-{[4-Fluoro-2-(2H-1,2,3-triazol-2-yl)phenyl]carbonyl}-5-[6-methyl-2-(trifluoromethyl)pyrimidin-4-yl]octahydropyrrolo[3,4-c]pyrrole]	7.82
Cc1cnc(C)c(N2CC3CN(C(=O)c4c(F)cccc4-n4nccn4)CC3C2)n1 (stereo not drawn) [Example 101, 2-(3,6-Dimethylpyrazin-2-yl)-5-{[2-fluoro-6-(2H-1,2,3-triazol-2-yl)phenyl]carbonyl}octahydropyrrolo[3,4-c]pyrrole]	7.32
CN(C)c1nc(N2CC3CN(C(=O)c4c(F)cccc4-n4nccn4)CC3C2)cc(C(F)(F)F)n1 (stereo not drawn) [Example 106, 4-[5-{[2-Fluoro-6-(2H-1,2,3-triazol-2-yl)phenyl]carbonyl}hexahydropyrrolo[3,4-c]pyrrol-2(1H)-yl]-N,N-dimethyl-6-(trifluoromethyl)pyrimidin-2-amine]	7.59
Cc1ccc(-c2ncccn2)c(C(=O)N2CC3CN(c4cc(C(F)(F)F)nc(N(C)C)n4)CC3C2)c1 (stereo not drawn) [Example 108, N,N-Dimethyl-4-{5-[(5-methyl-2-pyrimidin-2-ylphenyl)carbonyl]hexahydropyrrolo[3,4-c]pyrrol-2(1H)-yl}-6-(trifluoromethyl)pyrimidin-2-amine]	7.24
CN(C)c1nc(N2CC3CN(C(=O)c4cc(F)ccc4-c4ncccn4)CC3C2)cc(C(F)(F)F)n1 (stereo not drawn) [Example 109, 4-{5-[(5-Fluoro-2-pyrimidin-2-ylphenyl)carbonyl]hexahydropyrrolo[3,4-c]pyrrol-2(1H)-yl}-N,N-dimethyl-6-(trifluoromethyl)pyrimidin-2-amine]	7.34
CN(C)c1nc(N2CC3CN(C(=O)c4cc(F)ccc4-n4nccn4)CC3C2)cc(C(F)(F)F)n1 (stereo not drawn) [Example 110, 4-[5-{[5-Fluoro-2-(2H-1,2,3-triazol-2-yl)phenyl]carbonyl}hexahydropyrrolo[3,4-c]pyrrol-2(1H)-yl]-N,N-dimethyl-6-(trifluoromethyl)pyrimidin-2-amine]	7.28
CN(C)c1nc(N2CC3CN(C(=O)c4ccc(F)cc4-n4nccn4)CC3C2)cc(C(F)(F)F)n1 (stereo not drawn) [Example 111, [5-(2-Dimethylamino-6-trifluoromethyl-pyrimidin-4-yl)-hexahydro-pyrrolo[3,4-c]pyrrol-2-yl]-(4-fluoro-2-[1,2,3]triazol-2-yl-phenyl)-methanone]	7.55
O=C(c1cc(F)ccc1-c1ncccn1)N1CC2CN(c3nccc(-c4ccccc4)n3)CC2C1 (stereo not drawn) [Example 113, 2-[(5-Fluoro-2-pyrimidin-2-ylphenyl)carbonyl]-5-(4-phenylpyrimidin-2-yl)octahydropyrrolo[3,4-c]pyrrole]	7.30
Cc1cc(N2CC3CN(C(=O)c4cc(F)ccc4-n4nccn4)CC3C2)nc(C(F)(F)F)n1 (stereo not drawn) [Example 114, 2-{[5-Fluoro-2-(2H-1,2,3-triazol-2-yl)phenyl]carbonyl}-5-[6-methyl-2-(trifluoromethyl)pyrimidin-4-yl]octahydropyrrolo[3,4-c]pyrrole]	6.65
CN(C)c1nc(N2CC3CN(C(=O)c4c(F)cccc4-c4ncccn4)CC3C2)cc(C(F)(F)F)n1 (stereo not drawn) [Example 116, 4-{5-[(2-Fluoro-6-pyrimidin-2-ylphenyl)carbonyl]hexahydropyrrolo[3,4-c]pyrrol-2(1H)-yl}-N,N-dimethyl-6-(trifluoromethyl)pyrimidin-2-amine]	7.66
CN(C)c1nc(N2CC3CN(C(=O)c4ccccc4-n4nccn4)CC3C2)cc(C(F)(F)F)n1 (stereo not drawn) [Example 121, N,N-Dimethyl-4-[5-{[2-(2H-1,2,3-triazol-2-yl)phenyl]carbonyl}hexahydropyrrolo[3,4-c]pyrrol-2(1H)-yl]-6-(trifluoromethyl)pyrimidin-2-amine]	7.82

The next lines start with the values.

pKi	SMILES
6.29	Cc1ccnc(N2CC3CN(C(=O)c4ccccc4-c4nnc[nH]4)CC3C2)n1 (stereo not drawn) [Example 87, 2-(4-Methylpyrimidin-2-yl)-5-{[2-(4H-1,2,4-triazol-3-yl)phenyl]carbonyl}octahydro-pyrrolo[3,4-c]pyrrole]
7.12	CCOc1ccccc1C(=O)N1CC2CN(c3nc(C)cc(C)n3)CC2C1 (stereo not drawn) [Example 88, 2-(4,6-Dimethylpyrimidin-2-yl)-5-[(2-ethoxyphenyl)carbonyl]octahydropyrrolo[3,4-c]pyrrole]
6.34	Cc1cc(C)nc(N2CC3CN(C(=O)c4ccc(F)cc4C(F)(F)F)CC3C2)n1 (stereo not drawn) [Example 89, 2-(4,6-Dimethylpyrimidin-2-yl)-5-{[4-fluoro-2-(trifluoromethyl)phenyl]carbonyl}octahydropyrrolo[3,4-c]pyrrole]
7.42	Cc1cc(C)nc(N2CC3CN(C(=O)c4ccc(F)c5ccccc45)CC3C2)n1 (stereo not drawn) [Example 90, 2-(4,6-Dimethylpyrimidin-2-yl)-5-[(4-fluoronaphthalen-1-yl)carbonyl]octahydro-pyrrolo[3,4-c]pyrrole]
6.27	Cc1cc(C)nc(N2CC3CN(C(=O)c4ccccc4C(C)C)CC3C2)n1 (stereo not drawn) [Example 91, 2-(4,6-Dimethylpyrimidin-2-yl)-5-{[2-(1-methylethyl)phenyl]carbonyl}octahydro-pyrrolo[3,4-c]pyrrole]
6.12	COc1cccc(C(=O)N2CC3CN(c4nc(C)cc(C)n4)CC3C2)c1C (stereo not drawn) [Example 92, 2-(4,6-Dimethylpyrimidin-2-yl)-5-[(3-methoxy-2-methylphenyl)carbonyl]octahydro-pyrrolo[3,4-c]pyrrole]
7.19	Cc1cc(C)nc(N2CC3CN(C(=O)c4cccc5ccccc45)CC3C2)n1 (stereo not drawn) [Example 93, 2-(4,6-Dimethylpyrimidin-2-yl)-5-(naphthalen-1-ylcarbonyl)octahydropyrrolo[3,4-c]pyrrole]
6.67	Cc1nc2ccccc2nc1N1CC2CN(C(=O)c3ccccc3-c3nnc[nH]3)CC2C1 (stereo not drawn) [Example 95, 2-Methyl-3-[5-{[2-(4H-1,2,4-triazol-3-yl)phenyl]carbonyl}hexahydropyrrolo[3,4-c]pyrrol-2(1H)-yl]quinoxaline]
7.17	Cc1cc(N2CC3CN(C(=O)c4ccccc4-c4nnc[nH]4)CC3C2)nc(C(F)(F)F)n1 (stereo not drawn) [Example 96, 2-[6-Methyl-2-(trifluoromethyl)pyrimidin-4-yl]-5-{[2-(4H-1,2,4-triazol-3-yl)phenyl]carbonyl}octahydropyrrolo[3,4-c]pyrrole]
7.60	Cc1cc(N2CC3CN(C(=O)c4ccccc4-n4nccn4)CC3C2)nc(C(F)(F)F)n1 (stereo not drawn) [Example 97, 2-[6-Methyl-2-(trifluoromethyl)pyrimidin-4-yl]-5-{[2-(2H-1,2,3-triazol-2-yl)phenyl]carbonyl}octahydropyrrolo[3,4-c]pyrrole]
6.62	Cc1ccc(-n2nccn2)c(C(=O)N2CC3CN(c4cncc(C)n4)CC3C2)c1 (stereo not drawn) [Example 100, 2-(6-Methylpyrazin-2-yl)-5-{[5-methyl-2-(2H-1,2,3-triazol-2 yl)phenyl]carbonyl}octahydropyrrolo[3,4-c]pyrrole]
7.77	Cc1ccc(-c2ncccn2)c(C(=O)N2CC3CN(c4nc(C)cc(C)n4)CC3C2)c1 (stereo not drawn) [Example 102, 2-(4,6-Dimethylpyrimidin-2-yl)-5-[(5-methyl-2-pyrimidin-2-ylphenyl)carbonyl]octahydropyrrolo[3,4-c]pyrrole]
7.42	Cc1ccc(-c2ncccn2)c(C(=O)N2CC3CN(c4nc(C)cnc4C)CC3C2)c1 (stereo not drawn) [Example 103, 2-(3,6-Dimethylpyrazin-2-yl)-5-[(5-methyl-2-pyrimidin-2-ylphenyl)carbonyl]octahydropyrrolo[3,4-c]pyrrole]
7.38	Cc1cnc(C)c(N2CC3CN(C(=O)c4ccc(F)cc4-n4nccn4)CC3C2)n1 (stereo not drawn) [Example 104, 2-(3,6-Dimethylpyrazin-2-yl)-5-{[4-fluoro-2-(2H-1,2,3-triazol-2-yl)phenyl]carbonyl}octahydropyrrolo[3,4-c]pyrrole]
7.02	Cc1ccc(-c2ncccn2)c(C(=O)N2CC3CN(c4cc(C)nc(C(F)(F)F)n4)CC3C2)c1 (stereo not drawn) [Example 112, 2-[(5-Methyl-2-pyrimidin-2-ylphenyl)carbonyl]-5-[6-methyl-2-(trifluoromethyl)pyrimidin-4-yl]octahydropyrrolo[3,4-c]pyrrole]
5.30	Cc1cc(N2CC3CN(C(=O)c4cc(F)ccc4-n4nccn4)CC3C2)nc(C)n1 (stereo not drawn) [Example 115, [5-(2,6-Dimethyl-pyrimidin-4-yl)-hexahydro-pyrrolo[3,4-c]pyrrol-2-yl]-(5-fluoro-2-[1,2,3]triazol-2-yl-phenyl)-methanone]
7.62	Cc1cc(N2CC3CN(C(=O)c4c(F)cccc4-c4ncccn4)CC3C2)nc(C(F)(F)F)n1 (stereo not drawn) [Example 117, 2-[(2-Fluoro-6-pyrimidin-2-ylphenyl)carbonyl]-5-[6-methyl-2-(trifluoromethyl)pyrimidin-4-yl]octahydropyrrolo[3,4-c]pyrrole]
7.29	Cc1cc(N(C)C)nc(N2CC3CN(C(=O)c4ccccc4-n4nccn4)CC3C2)n1 (stereo not drawn) [Example 119, N,N,6-Trimethyl-2-[5-{[2-(2H-1,2,3-triazol-2-yl)phenyl]carbonyl}hexahydropyrrolo[3,4-c]pyrrol-2(1H)-yl]pyrimidin-4-amine]
7.15	Cc1cc(N2CC3CN(C(=O)c4ccccc4-n4nccn4)CC3C2)nc(N(C)C)n1 (stereo not drawn) [Example 120, N,N,4-Trimethyl-6-[5-{[2-(2H-1,2,3-triazol-2-yl)phenyl]carbonyl}hexahydropyrrolo[3,4-c]pyrrol-2(1H)-yl]pyrimidin-2-amine]
